According to patent US20160346295A1, “Selective Estrogen Receptor Modulators With Short Half-Lives and Uses Thereof” (REPROS THERAPEUTICS INC., priority 2012, published 2016):
Each block holds one compound with its values, some of them ahead of it.

Columns and labels:
[1] = blood plasma; cited from earlier work
[2] = test system: adult human males with secondary hypogonadism; assay: One year open label extension study, long term oral trans-clomiphene 12.5 mg daily
[3] = human, in vivo, po
Method: A clinical study to estimate the pharmacokinetic (PK) profile of enclomiphene (trans-clomiphene) following single-dose and steady-state doses administered orally. 52 adult males between 18 and 75 years of age with total serum testosterone level<250 ng/dl or between 250 to 300 ng/dl and FSH/LH levels within the normal range, were randomly assigned to one of the following five treatment groups: (i) 12.5 mg enclomiphene/day (ii) 25 mg enclomiphene/day (iii) 50 mg enclomiphene/day (trans-clomiphene) (iv) Androgel® (1% topical testosterone applied daily) or (v) placebo. Enclomiphene citrate was provided as 12.5 mg capsules and orally administered once (12.5 mg arm) twice (25 mg arm) or four times (50 mg arm) per day for 14 consecutive days. Single-dose and steady-state PK assessments were preformed in a subset of these males following the first (Day 1) and last (Day 14) dose. […] Pre-dose plasma enclomiphene concentrations were also measured on Day 11 using a single blood sample. […] PK parameters were calculated using noncompartmental methods for subjects randomized to enclomiphene. The accumulation ratio, defined as the AUC0-24 on Day 14, divided by the AUC0-24 value on Day 1 was calculated.
The accumulation index for each enclomiphene dose group was calculated based on the arithmetic mean of the individual ratio of AUC(0-24) on Day 14 divided by AUC(0-24) on Day 1. […]

[4] = test system: rodent, baboon, rabbit and dog models; assay: Animal safety pharmacology studies; assay type: in vivo
[5] = majority or all of the timepoints

SMILES: O=C(c1ccc(OCCN2CCCCC2)cc1)c1c(-c2ccc(O)cc2)sc2cc(O)ccc12 [Raloxifene, 6-hydroxy-2(4-hydroxyphenyl)-3-[4-(2-piperdinoethoxy)benzoyl]benzo[b]thiophene]
- Half-Life [1]: 27 h

SMILES: COc1ccc2c(c1)OC(C)(C)[C@@H](c1ccccc1)[C@@H]2c1ccc(OCCN2CCCC2)cc1 [Levormeloxifene, (−)-3R,4R-trans-7-methoxy-2,2-dimethyl-3-phenyl-4-{4-[2-(pyrrolidin-1-yl)ethoxy]phenyl} chromane]
- Half-Life [1]: 24 h

SMILES: Oc1ccc2c(c1)CC[C@H](c1ccccc1)[C@@H]2c1ccc(OCCN2CCCC2)cc1 [Lasofoxifene]
- Half-Life [1]: 140 h

SMILES: CC/C(=C(\c1ccc(I)cc1)c1ccc(OCCN2CCCC2)cc1)c1ccccc1 [Idoxifene]
- Half-Life [1]: 3 weeks

SMILES: CCN(CC)CCOc1ccc(C(=C(Cl)c2ccccc2)c2ccccc2)cc1 [Clomid]
- Half-Life [1]: 120 to 170 h

SMILES: CC/C(=C(/c1ccc(OCCN(C)C)cc1)c1cccc(O)c1)c1ccccc1 [Droloxifene, E-1-[4′-(2-dimethylaminoethoxy)phenyl]-1-(3′-hydroxyphenyl)-2-phenyl-1-butene]
- Half-Life [1]: 24 h

SMILES: CC/C(=C(\c1ccccc1)c1ccc(OCCN(C)C)cc1)c1ccccc1 [Tamoxifen]
- Half-Life [1]: 120 to 170 h

SMILES: COc1ccc2c(c1)OC(C)(C)C(c1ccccc1)C2c1ccc(OCCN2CCCC2)cc1 (stereo not shown) [Ormeloxifene]
- Half-Life [1]: 170 h

- discontinuation due to a reduction in visual acuity ([2]; during the study): No subjects were discontinued
- subjects with events considered severe ([2]; during the study): nine
- half life of enclomiphene based on the PK data obtained [3]: ~10.5 h
SMILES: CCN(CC)CCOc1ccc(/C(=C(\Cl)c2ccccc2)c2ccccc2)cc1 [Enclomiphene, trans-clomiphene]
- other questionnaires of sexual function (DISF-SR II (M), MSDS) ([2]; 12.5 mg daily oral): no concomitantly significant changes
- overall mean increases in total serum testosterone from baseline to 1 year ([2]; 12.5 mg daily oral): statistically significant
- subjects who experienced serious adverse effects (SAEs) ([2]; 12.5 mg daily oral up to one year): 5%
- subjects who experienced at least one adverse event considered related to the study drug ([2]; 19/101 subjects): 18.8%
- subjects with mean total serum testosterone levels within the normal reference range ([2]; at 1 year, normal range 300-1040 ng/dl, 12.5 mg daily oral): 62.5%
- hematology, blood chemistry, urinalysis, vital signs, physical exam, PSA values, ECG readings ([2]; during the study): no clinically relevant changes
- subjects discontinued from the study due to AEs ([2]; during the study): Nine
- subjects who experienced at least one adverse event ([2]; during the study): 51.5%
- libido, libido component of IIEF questionnaire ([2]; from baseline at months 4, 6 and 12): Statistically significant improvements
- DHT/testosterone ratio change [2, 5]: Statistically significant increases
- FSH change [2, 5]: Statistically significant increases
- LH change [2, 5]: Statistically significant increases
- dihydrotestosterone (DHT) change [2, 5]: Statistically significant increases
- estradiol change [2, 5]: Statistically significant increases
- high-density lipoprotein cholesterol (HDL-C) change from baseline [2, 5]: Statistically significant decreases
- prolactin change [2, 5]: statistically significant decreases
- sex hormone binding globulin (SHBG) change [2, 5]: Statistically significant increases
- total cholesterol (TC) change from baseline [2, 5]: Statistically significant decreases
- triglycerides change from baseline [2, 5]: Statistically significant decreases
- testicular size, significance of increase ([2]; orchidometer): statistically significant increase was observed at Month 6 only
- adverse effects in the central nervous, respiratory or cardiovascular systems [4]: no adverse effects

SMILES: OCCOc1ccc(/C(=C(/CCCl)c2ccccc2)c2ccccc2)cc1 [Ospemifene]
- Half-Life [1]: 26 h

SMILES: COc1ccc(-c2sc3cc(O)ccc3c2Oc2ccc(OCCN3CCCCC3)cc2)cc1 [Arzoxifene]
- Half-Life [1]: 30 h
